Results: PMC8434109, “Synthesis and Biological Activity of a Cytostatic Inhibitor of MLLr Leukemia Targeting the DOT1L Protein” (Molecules, 2021)

Legend:
MV4-11 cells = assay: Flow cytometry apoptosis analysis (Annexin V-APC/7-AAD); assay type: cell-based, human
Procedure: A decrease in the S phase of the cell cycle was also observed from 24% (day 8) to 20% (day 10), 13% (day 12).
In a 12-well plate, 2 mL exponentially growing MV4-11 cells were plated with a density of 2 × 10^5 cells/mL. […] Culture media and drugs were replaced every 2–3 days and cells were split back to a density of 2 × 10^5 cells/mL at the same time. Cells were harvested on days 8, 10, 12 and split to allow the analysis of cell cycle and Annexin V staining simultaneously. The apoptosis ratio was detected by an Annexin V-APC/7-AAD double staining assay (SONY 3804610) and cells were prepared according to the manufacturer’s recommendations. Cells for the cell cycle analysis were collected by centrifugation at 500× g for 5 min at 4 °C. The pellets were washed once with cold PBS and then fixed with 70% ethanol on ice for 30 min. Afterwards, the cells were washed once with cold PBS and stained with propidium iodide (Invitrogen P3566) for 30 min at 37 °C. Samples were measured using an Attune NxT acoustic focusing cytometer (Life Technologies), data were analyzed by FlowJo.

MOLM-13 cells (MLL-AF9) = assay: Cell proliferation, trypan blue counting; assay type: cell-based; details: Homo sapiens, 360 h; MOLM-13 (AF9), 15-day treatment; read-out: EC50 of the proliferation inhibition
NOMO-1 cells (MLL-AF9) = assay: Cell proliferation, trypan blue counting; assay type: cell-based; details: Homo sapiens, 360 h; NOMO-1 (AF9), 15-day treatment; read-out: EC50 of the proliferation inhibition
Procedure: (§1) For assessment of cell proliferation and viability in human cell lines, exponentially growing cells were placed, in triplicate, in 96-well plates at a density of 35,000 cells/well at a final volume of 100 µL. […] The viable cell number was determined every 3–4 days for up to 15 days to 21 days using trypan blue counting using Cellometer Disposable Counting Chambers for the Cellometer Mini Automated Cell Counter.

KOPN8 cells (MLL-ENL) = assay: Cell proliferation, trypan blue counting; assay type: cell-based; details: Homo sapiens, KOPN-8, 360 h, 15-day treatment, read-out: EC50 of the proliferation inhibition
Procedure: as §1

DNMT3A = DNMT3A (Homo sapiens, UniProt Q9Y6K1); assay: hDNMT3Acat activity assay; assay type: biochemical; details: substrate DNA, read-out: Enzyme % Activity (relative to DMSO controls)
DNMT3A, sequence (Q9Y6K1 634-912 limits assumed): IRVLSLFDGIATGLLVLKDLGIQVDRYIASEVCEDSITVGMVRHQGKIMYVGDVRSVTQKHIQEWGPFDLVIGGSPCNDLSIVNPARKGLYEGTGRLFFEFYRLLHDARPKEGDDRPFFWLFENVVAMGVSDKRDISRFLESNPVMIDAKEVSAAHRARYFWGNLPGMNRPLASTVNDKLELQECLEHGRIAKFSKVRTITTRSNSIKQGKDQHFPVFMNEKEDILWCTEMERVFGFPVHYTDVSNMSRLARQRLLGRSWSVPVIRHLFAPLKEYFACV
Procedure: Table S1: Selectivity of the compound on a HMT panel (by Reaction Biology, USA) and on hDNMT3Acat (as described in Ceccaldi
Enzyme % Activity (relative to DMSO
Testing Concentration 10µM
Methyltransferase: Substrate: Activity enzyme in %

H3K79me2 in MV4-11 cells = assay: Western blot of H3K79me2 normalized to total H3; assay type: cell-based, human; details: MV4-11, 4 days, increasing concentrations
Procedure: (§2) Next, we evaluated the effect on the demethylation of H3K79 in MLL-AF9 MOLM13 cells (Figure 7B).
(§3) The non-adherent cell lines MV4-11, MOLM-13, and KOPN8 exponentially growing cells were plated in 12-well plates (1 plate for each experiment) at a rate of 500,000 cells per well at a final volume of 2 mL. The cells were incubated in the presence of increasing inhibitor concentrations (0.1, 0.32, 1, 3.2, 10 µM). The cells (1 to 2 million) were harvested at the time chosen according to the line in order to extract the histones and the RNAs.
(§4) For the isolation of histones from cells, 1 to 2 million cells were collected, after exposure to the chosen treatment, by centrifugation at 200× g and lysed by 5 min of incubation on ice in 250 μL of the nuclear extraction buffer (10 mM Tris-HCl, 10 mM MgCl2, 25 mM KCl, 1% Triton X-100, 8.6% sucrose, Roche Protease inhibitor tablet 1836145). The nuclei were collected by centrifugation at 600× g for 5 min at 4 °C. The supernatant was removed and the histones were extracted for 1 h with 0.4 N cold sulfuric acid. The extracts were clarified by centrifugation at 10,000× g for 10 min at 4 °C and transferred to a microcentrifuge tube containing a 10× volume of ice-cold acetone. The histones were precipitated at ‒20 °C overnight and recovered by centrifugation at 1500× g for 10 min in the form of a pellet and then resuspended in 80 μL of water. Histones were quantified by absorbance measured by a nanodrop at 276 nm.
(§5) After extraction, the histones (500ng) were separated on 4–20% Tris-Glycine gels (Invitrogen) and transferred onto a nitrocellulose membrane ([…]) using the iBlot® Gel Transfer Stacks Nitrocellulose kit Mini (Invitrogen). After blocking nonspecific sites for 1 h at room temperature in a solution of 1X TBS at 5% milk, the membrane was incubated with rabbit anti-H3K79me2 (ab3594, 1/1000) or anti-H3 (ab1791)1/1000) overnight at 4 °C or 1 h at RT. The membrane was then washed three times for 5 min in a 1X TBS solution containing 0.05% Tween20 and was then incubated with an HRP anti-rabbit secondary antibody (NA934V, 1/10,000) for 1 h at RT. […]

H3K79me2 in MOLM13 cells = assay: Western blot of H3K79me2 normalized to total H3; assay type: cell-based, human; details: MOLM13, 6 days
Procedure: as §2, §3, §4, §5

recombinant hDOT1L = recombinant hDOT1L (Homo sapiens, UniProt Q8TEK3); assay: AlphaLISA DOT1L enzymatic inhibition assay on purified nucleosomes
recombinant hDOT1L, sequence (Q8TEK3 1-416): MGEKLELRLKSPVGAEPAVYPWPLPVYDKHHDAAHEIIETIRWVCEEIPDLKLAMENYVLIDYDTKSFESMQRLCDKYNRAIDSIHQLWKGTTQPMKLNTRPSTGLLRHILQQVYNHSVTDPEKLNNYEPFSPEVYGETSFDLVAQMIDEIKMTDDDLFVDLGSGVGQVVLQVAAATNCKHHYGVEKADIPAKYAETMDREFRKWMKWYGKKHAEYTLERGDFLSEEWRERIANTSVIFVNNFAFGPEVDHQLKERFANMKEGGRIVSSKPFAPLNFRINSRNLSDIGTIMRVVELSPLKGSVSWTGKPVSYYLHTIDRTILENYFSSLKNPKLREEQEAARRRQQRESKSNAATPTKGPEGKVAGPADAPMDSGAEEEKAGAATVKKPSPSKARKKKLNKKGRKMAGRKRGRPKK

Microsomal stability = assay type: in vitro ADME

With `CC(C)[C@H](CCCNC(=O)Nc1ccc(C(C)(C)C)cc1)N[C@H]1C[C@@H](n2cnc3c(N)ncnc32)[C@H](O)[C@@H]1O` [Dia2, 1-((S)-4-(((1S,2R,3S,4R)-4-(6-amino-9H-purin-9-yl)-2,3-dihydroxycyclopentyl)amino)-5-methylhexyl)-3-(4-(tert-butyl)phenyl)urea] the effect on apoptosis (MV4-11 cells; MV4-11) was “very little apoptosis”, the “apoptotic (Annexin V positive) cells” value (MV4-11 cells; MV4-11, 1 µM, day 8) was 23% and the “apoptotic (Annexin V positive) cells” value (MV4-11 cells; MV4-11, 1 µM, day 10) was 20%. The “apoptotic (Annexin V positive) cells” value (MV4-11 cells; MV4-11, 3.2 µM, day 8) was 35%, the “apoptotic (Annexin V positive) cells” value (MV4-11 cells; MV4-11, 3.2 µM, day 10) was 38% and the EC50 (MOLM-13 cells (MLL-AF9)) was 120 ± 10 nM. It also gave an EC50 (NOMO-1 cells (MLL-AF9)) of 660 ± 20 nM, an EC50 (KOPN8 cells (MLL-ENL)) of 63 ± 2 nM and a remaining activity at 10 µM (DNMT3A) of 96 ± 2%. The “H3K79me2 methylation compared to DMSO treated cells” value (H3K79me2 in MV4-11 cells) was “efficient decrease in methylation”, the “inhibition of the H3K79me2 mark” value (H3K79me2 in MOLM13 cells) was “as efficient as EPZ-5676” and the IC50 (recombinant hDOT1L) was 4.7 nM. For the same compound, the half-life increase (Microsomal stability; mouse liver microsomes, versus EPZ-4777 and EPZ-5676) was 2 fold, the microsomal CLint (Microsomal stability; mouse liver microsomes, read-out: intrinsic clearance) was 121 µL/min/mg and the half-life (Microsomal stability; mouse, liver microsomes) was 11.5 min.
